From publication PMC5738360, “Engineering cell sensing and responses using a GPCR-coupled CRISPR-Cas system” (Nature Communications, 2017) come the findings set out here.

Holding throughout (assay): ChaCha beta-arrestin/TEV-release GFP reporter in HEK293T cells
Common to all, as to format: cell-based

The target in assay [1] is T1, kappa opioid receptor DREADD (KORD) (Homo sapiens, UniProt P41145, D138N).
T1 construct: gene OPRK1; KORD-V2-TEVp; with ARRB2 (ARRB2-TCS-dCas9-VPR)

Assay [2] deals with T2, LPAR1 (Homo sapiens, UniProt Q92633).
T2 construct: LPAR1-V2-TEVp; with ARRB2 (ARRB2-TCS-dCas9-VPR)

In assay [3] the target is T3, TRHR (Homo sapiens, UniProt P34981).
T3 construct: TRHR-V2-TEVp; with ARRB2 (ARRB2-TCS-dCas9-VPR)
T3 sequence (P34981 whole entry): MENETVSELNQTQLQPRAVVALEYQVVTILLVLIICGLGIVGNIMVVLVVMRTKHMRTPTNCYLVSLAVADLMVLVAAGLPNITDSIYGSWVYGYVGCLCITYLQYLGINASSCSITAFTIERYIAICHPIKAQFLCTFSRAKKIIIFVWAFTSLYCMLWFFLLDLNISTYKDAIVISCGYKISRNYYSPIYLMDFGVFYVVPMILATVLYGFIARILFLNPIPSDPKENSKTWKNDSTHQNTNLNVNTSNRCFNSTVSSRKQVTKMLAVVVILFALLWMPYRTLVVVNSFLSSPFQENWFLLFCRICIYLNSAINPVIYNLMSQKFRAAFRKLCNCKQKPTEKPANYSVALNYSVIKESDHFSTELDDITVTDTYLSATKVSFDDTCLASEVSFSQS
T3 sequence (P32121 whole entry partner): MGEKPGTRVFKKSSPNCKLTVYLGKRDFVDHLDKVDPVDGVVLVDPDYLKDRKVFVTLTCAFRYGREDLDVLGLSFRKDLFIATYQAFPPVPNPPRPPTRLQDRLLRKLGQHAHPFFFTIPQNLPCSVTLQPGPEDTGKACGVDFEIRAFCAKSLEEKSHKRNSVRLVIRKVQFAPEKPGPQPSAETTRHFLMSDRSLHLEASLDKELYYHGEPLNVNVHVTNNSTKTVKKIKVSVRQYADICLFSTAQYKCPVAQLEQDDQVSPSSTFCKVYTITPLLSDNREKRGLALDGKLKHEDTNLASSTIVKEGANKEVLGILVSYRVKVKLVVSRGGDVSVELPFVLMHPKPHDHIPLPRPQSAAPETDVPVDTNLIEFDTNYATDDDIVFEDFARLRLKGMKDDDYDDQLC

T1 sequence (P41145 whole entry D138N): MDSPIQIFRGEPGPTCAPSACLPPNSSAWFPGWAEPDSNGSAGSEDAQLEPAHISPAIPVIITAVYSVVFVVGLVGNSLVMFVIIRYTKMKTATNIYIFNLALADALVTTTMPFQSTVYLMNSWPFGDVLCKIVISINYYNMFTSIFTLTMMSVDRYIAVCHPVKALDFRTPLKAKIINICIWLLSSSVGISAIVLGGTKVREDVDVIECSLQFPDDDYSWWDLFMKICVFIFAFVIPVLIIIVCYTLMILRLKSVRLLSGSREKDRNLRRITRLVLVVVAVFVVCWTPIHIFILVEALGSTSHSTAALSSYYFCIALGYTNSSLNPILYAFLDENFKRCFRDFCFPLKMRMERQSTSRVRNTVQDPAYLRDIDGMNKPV
T1 sequence (P32121 whole entry, further chain): as the sequence (P32121 whole entry partner) above
T2 sequence (Q92633 whole entry): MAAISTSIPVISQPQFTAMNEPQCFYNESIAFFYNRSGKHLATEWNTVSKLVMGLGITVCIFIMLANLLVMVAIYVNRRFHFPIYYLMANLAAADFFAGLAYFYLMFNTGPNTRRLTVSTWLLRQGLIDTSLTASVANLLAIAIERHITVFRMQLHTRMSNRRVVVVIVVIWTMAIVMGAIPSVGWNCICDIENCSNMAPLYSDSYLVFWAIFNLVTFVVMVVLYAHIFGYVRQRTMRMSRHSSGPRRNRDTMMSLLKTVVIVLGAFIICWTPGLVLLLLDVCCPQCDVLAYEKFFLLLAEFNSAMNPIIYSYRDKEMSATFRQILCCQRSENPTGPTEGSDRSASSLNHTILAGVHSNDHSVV
T2 sequence (P32121 whole entry partner): as the sequence (P32121 whole entry partner) above

As for `COC(=O)[C@@H]1C[C@H](O)C(=O)[C@H]2[C@@]1(C)CC[C@H]1C(=O)O[C@H](c3ccoc3)C[C@]21C` [Salvinorin B], in assay [1], the “ChaCha beta-arrestin/TEV-release GFP reporter in HEK293T cells” value is “another evolved GPCR, the kappa opioid receptor DREADD (KORD), which senses Salvinorin B”. In the case of `CCCCCCCC/C=C\CCCCCCCC(=O)OC[C@@H](O)COP(=O)(O)O` [lysophosphatidic acid], the “ChaCha beta-arrestin/TEV-release GFP reporter in HEK293T cells” value in assay [2] was “LPAR1, which senses the fatty acid lysophosphatidic acid”.

For the compound `NC(=O)[C@@H]1CCCN1C(=O)[C@H](Cc1cnc[nH]1)NC(=O)[C@@H]1CCC(=O)N1` [thyrotropin-releasing hormone], the “ChaCha beta-arrestin/TEV-release GFP reporter in HEK293T cells” value in assay [3] is given as “TRHR, which senses thyrotropin-releasing hormone”.
